This is an account of results in ChEMBL document CHEMBL1201862, “PubChem BioAssay data set” (2004).

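Briefly, cells in 96-well plates were exposed to five compound concentrations for 48 h, and endpoints were estimated by linear interpolation. GI50 is the concentration that inhibits growth by half.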 The source made the active and inactive calls. Cut-off read from the data, not from the text of the source: active = GI50 up to about 1.1 µM and inactive = higher. A value given as a limit tells only on which side of the number the result lay.

Holding throughout (test): DTP human tumour cell line panel, 48 h
For test [1], the system named is HL-60.
In test [2] the test system is SK-MEL-28.
The subject of test [3] is EKVX.
For test [4], the system named is MDA-N.
The test system of test [5] is OVCAR-8.
The test system of test [6] is HCC 2998.
Test [7] deals with SR.
The subject of test [8] is MDA-MB-231.
For test [9], the system named is SF-268.
Test [10] relates to NCI-H226.
Test [11] relates to SN12C.
Test [12] has as its system DU-145.
Test [13] relates to SNB-75.
Test [14] concerns 786-0.
The test system of test [15] is UO-31.
In test [16] the test system is CCRF-CEM.
The test system of test [17] is U-251.
In test [18] the test system is IGROV-1.
Test [19] has as its system SF-539.
The subject of test [20] is LXFL 529.

As a reminder, the GI50 is the concentration that inhibits growth by half. On to `CN(C)CCNC(=O)c1ccc(NCCCN(C)CCCNc2ccc3c(=O)n(CCN(C)C)c(=O)n4c5ccccc5c(=O)c2c34)c2c(O)c3ccccc3nc12`, for which the GI50 was 0.0318 µM (active) in test [1]; 0.234 µM (active) in [2]; 0.16 µM (active) in test [3]; 0.0332 µM (active) in [4]; < 0.01 µM (active) in test [5]; < 0.01 µM (active) in [6]. Moreover, the GI50 is < 0.01 µM (active) in test [7]; < 0.027 µM (active) in test [8]; < 0.01 µM (active) in test [9]; < 0.0214 µM (active) in [10]; < 0.01 µM (active) in [11]; < 0.01 µM (active) in test [12]. The GI50 in test [13], in [14], in test [15], in [16], in [17] and in [18] was < 0.01 µM (active) throughout. Besides, the GI50 in [19] was 0.138 µM (active).

For `Cc1cc(N(CCC#N)CCC#N)ccc1/N=N/c1ccccc1[N+](=O)[O-]`, the GI50 in [1], in [2], in test [3], in [5], in test [6] and in test [9] was > 100 µM (inactive) each time. The GI50 in test [10] is > 100 µM (inactive); in [11], > 100 µM (inactive); in [13], 34 µM (inactive); in [14], > 100 µM (inactive); in [15] it was > 100 µM (inactive); in test [16], > 100 µM (inactive). For the same compound, the GI50 in [17], in test [20], in test [18] and in [19] was > 100 µM (inactive) each time.

Turning to `CCOC(=O)/C(C#N)=C/c1[nH]c(C)c(C)c1C`, the GI50 in test [1], in test [3], in [5], in test [6], in test [9] and in [10] was > 100 µM (inactive) in each case. Besides, the GI50 in test [11], in test [13], in test [14], in [15], in [16] and in [17] was > 100 µM (inactive) throughout. The GI50 in test [20], in test [18] and in test [19] was > 100 µM (inactive) each time.

Consider `CC(=O)OC1=C2CC[C@@H]3C(CC[C@@]4(C)C3CC[C@@H]4OC(C)=O)[C@@]2(C)CC(C#N)C1=O` (stereo partly specified), for which the GI50 in test [1] is 16 µM (inactive); in [2], 30.3 µM (inactive); in [3], 33 µM (inactive); in test [5], 30.9 µM (inactive); in [6], 13.3 µM (inactive); in [9], 31 µM (inactive). Besides, the GI50 was 34.7 µM (inactive) in test [10]; 28.6 µM (inactive) in test [11]; 14.5 µM (inactive) in test [13]; 10.8 µM (inactive) in test [14]; 7.69 µM (inactive) in [15]; 20.2 µM (inactive) in [16]. Also, the GI50 is 27.4 µM (inactive) in [17], 30 µM (inactive) in test [20], 19.2 µM (inactive) in [18] and 30.3 µM (inactive) in test [19].

For `O=C(O)c1nc(-c2ccccn2)c(-c2ccccn2)nc1C(=O)O`, the GI50 in [1] is 2.25 µM (inactive); in [2], 1.2 µM (inactive); in test [3], 1.88 µM (inactive); in [4], 2.2 µM (inactive); in test [5], 3.44 µM (inactive); in test [6] it was 0.773 µM (active). Further, the GI50 is 2.03 µM (inactive) in test [7]; 9.82 µM (inactive) in test [8]; 3.31 µM (inactive) in test [9]; 1.7 µM (inactive) in test [10]; 3.27 µM (inactive) in test [11]; 2.47 µM (inactive) in test [12]. Further, the GI50 in test [13] is 3.49 µM (inactive); in [14], 2.61 µM (inactive); in test [15], 1.64 µM (inactive); in [16], 2.44 µM (inactive); in [17], 1.77 µM (inactive); in test [18], 3.5 µM (inactive). The GI50 in [19] was 3.38 µM (inactive).

`Brc1cccc(/C=C/CN2CCN(CCOC(c3ccccc3)c3ccccc3)CC2)c1`: the GI50 is 7.45 µM (inactive) in test [1]; 17.8 µM (inactive) in [2]; 17.5 µM (inactive) in test [3]; 16.7 µM (inactive) in test [4]; 16.1 µM (inactive) in test [5]; 8.53 µM (inactive) in test [6]. The GI50 in test [7] was 9.02 µM (inactive); in test [8] it was 13.9 µM (inactive); in [9] it was 16.4 µM (inactive); in [10] it was 19 µM (inactive); in [11], 15 µM (inactive); in [12] it was 13.6 µM (inactive). The GI50 in test [13] was 6.08 µM (inactive); in test [14], 15.7 µM (inactive); in [15], 13.1 µM (inactive); in test [16], 11.1 µM (inactive); in test [17] it was 13.6 µM (inactive); in test [18] it was 15.9 µM (inactive). Also, the GI50 in test [19] was 15.7 µM (inactive).

Consider `CN(C)/C=N/NC(=O)/C(C#N)=C/N(C)C`, for which the GI50 in test [1], in [2], in [3], in test [4], in test [5] and in test [6] was > 100 µM (inactive) throughout. The GI50 in test [7], in [8], in test [9], in test [10], in test [11] and in test [12] was > 100 µM (inactive) each time. Moreover, the GI50 in test [13], in test [14], in test [15], in [16], in test [17] and in test [18] was > 100 µM (inactive) in each case. Moreover, the GI50 in test [19] is 64.7 µM (inactive).

Take `COc1ccc2c3c(c(C(=O)O)oc13)C(CCC(=O)O)CC2` (stereo unspecified): the GI50 in [2], in test [3], in [5], in [6], in test [11] and in [13] was > 100 µM (inactive) throughout. Also, the GI50 in test [14], in [17], in test [20], in [18] and in [19] was > 100 µM (inactive) throughout.

`CCCCCCCCCCCCCC(=O)OC1CC(=O)OC1CO` (stereo unspecified): the GI50 in test [1] was 23 µM (inactive); in [3], > 100 µM (inactive); in [5], > 100 µM (inactive); in [6], 60.3 µM (inactive); in test [9], 64 µM (inactive); in test [11], > 100 µM (inactive). Moreover, the GI50 in test [13] is 79.6 µM (inactive); in [14], > 100 µM (inactive); in test [15] it was 32.8 µM (inactive); in test [16], 25.5 µM (inactive); in test [17], 53.6 µM (inactive); in test [20], 89.3 µM (inactive). Further, the GI50 in test [18] is 41 µM (inactive); in test [19], > 100 µM (inactive).

With `C=CC1=C(C)c2cc3[nH]c(c4c5nc(cc6[nH]c(cc1n2)c(C)c6CC)C(C)=C5C(=O)[C@@H]4C(=O)OC)[C@@H](CCC(=O)O)[C@@H]3C`, the GI50 in test [1] is 1.37 µM (inactive); in test [2], 1.64 µM (inactive); in test [3], 10.2 µM (inactive); in test [4], 5.27 µM (inactive); in [5], 3.52 µM (inactive); in test [6], 2 µM (inactive). The GI50 in test [7] is 0.634 µM (active); in test [8] it was 11.2 µM (inactive); in test [9] it was 9.82 µM (inactive); in test [10] it was 6.01 µM (inactive); in test [11], 5.45 µM (inactive); in [12], 33.8 µM (inactive). In addition, the GI50 is 2.11 µM (inactive) in test [13]; 7.71 µM (inactive) in [14]; 2.33 µM (inactive) in test [15]; 1.21 µM (inactive) in test [16]; 3.06 µM (inactive) in [17]; 7.24 µM (inactive) in [18]. For the same compound, the GI50 in test [19] is 1.86 µM (inactive).

Take `CCC[C@H](C)[C@H]1NC(=O)[C@@H](NC(=O)[C@@H](CC(C)C)N(C)C(=O)C2CCCN2C(=O)[C@H](C)O)[C@@H](C)OC(=O)[C@H](CC(C)C)N(C)C(=O)[C@@H]2CCCN2C(=O)[C@H](CC(C)C)NC(=O)[C@@H](C)C(=O)[C@H](C(C)C)OC(=O)C[C@@H]1O` (stereo partly specified): the GI50 in test [1], in [2], in [3], in test [4], in test [5] and in test [6] was < 0.0025 µM (active) throughout. The GI50 in test [7], in test [8], in test [9], in test [10], in test [11] and in [12] was < 0.0025 µM (active) in each case. Besides, the concentration for 50% growth inhibition (GI50) was < 0.0025 µM (active) in test [13]; < 0.0025 µM (active) in test [14]; 0.0107 µM (active) in test [15]; < 0.0025 µM (active) in test [16]; < 0.0025 µM (active) in [17]; < 0.0025 µM (active) in test [18]. Moreover, the 50% growth inhibitory concentration (GI50) in [19] was < 0.0025 µM (active).
